Data: US20140378416A1, “SILYL-CONTAINING HETEROCYCLIC COMPOUNDS AND METHODS OF USE THEREOF FOR THE TREATMENT OF VIRAL DISEASES” (priority 2011, published 2014)
Like-named read-outs stand apart in the source and are kept apart here.

Key:
HCV replicon 1a = experiment: Cell-based HCV replicon assay (TaqMan), genotype 1a replicon; settings: HCV 1a replicon cells, replicon RNA by TaqMan on day 3, EC90 = concentration for ΔCT=3.2 over baseline
Experimental: (§1) Measurement of inhibition by compounds of the present invention was performed using the HCV replicon system. Several different replicons encoding different HCV genotypes or mutations were used. In addition, potency measurements were made using different formats of the replicon assay, including different ways of measurements and different plating formats. See Jan M. Vrolijk et al., A replicons-based bioassay for the measurement of interferons in patients with chronic hepatitis C, 110 J. VIROLOGICAL METHODS 201 (2003); Steven S. Carroll et al., Inhibition of Hepatitis C Virus RNA Replication by 2′-Modified Nucleoside Analogs, 278(14) J. BIOLOGICAL CHEMISTRY 11979 (2003). However, the underlying principles are common to all of these determinations, and are outlined below.
(§2) Compounds of the present invention were assayed for cell-based anti-HCV activity using the following protocol. Replicon cells were seeded at 5000 cells/well in 96-well collagen I-coated Nunc plates in the presence of the test compound. Various concentrations of test compound, typically in 10 serial 2-fold dilutions, were added to the assay mixture, with the starting concentration ranging from 250 μM to 1 μM. The final concentration of DMSO was 0.5%, fetal bovine serum was 5%, in the assay media. Cells were harvested on day 3 by the addition of 1× cell lysis buffer (Ambion cat #8721). The replicon RNA level was measured using real time PCR (TaqMan® assay). The amplicon was located in 5B. The PCR primers were: 5B.2F, ATGGACAGGCGCCCTGA (SEQ. ID NO. 1); 5B.2R, […] (SEQ. ID NO. 2); the probe sequence was FAM-labeled CACGCCATGCGCTGCGG (SEQ. ID NO. 3). GAPDH RNA was used as endogenous control and was amplified in the same reaction as NS5B (multiplex PCR) using primers and VIC-labeled probe recommended by the manufacturer (PE Applied Biosystem). The real-time […] reactions were run on ABI PRISM 7900HT Sequence Detection System using the following program: 48° C. for 30 minutes, 95° C. for 10 minutes, 40 cycles of 95° C. for 15 sec, 60° C. for 1 minute. The ACT values (CT5B-CTGAPDH) were plotted against the concentration of test compound and fitted to the sigmoid dose-response model using XLfit4 (MDL). EC50 was defined as the concentration of inhibitor necessary to achieve ΔCT=1 over the projected baseline; EC90 the concentration necessary to achieve ΔCT=3.2 over the baseline. Alternatively, to quantitate the absolute amount of replicon RNA, a standard curve was established by including serially diluted T7 transcripts of replicon RNA in the Taqman assay. All TaqMan® reagents were from PE Applied Biosystems. Such an assay procedure was described in detail in e.g. Malcolm et al., Antimicrobial Agents and Chemotherapy 50: 1013-1020 (2006).
(§3) HCV replicon EC50 assay data for various replicons and mutants was calculated for selected compounds of the present invention using this method and is provided in the tables above herein.

HCV replicon 1b = experiment: Cell-based HCV replicon assay (TaqMan), genotype 1b replicon; settings: HCV 1b replicon cells, replicon RNA by TaqMan on day 3, EC90 = concentration for ΔCT=3.2 over baseline
Experimental: as §1, §2, §3

HCV replicon 1a Y93H = experiment: Cell-based HCV replicon assay (TaqMan), genotype 1a Y93H mutant replicon; settings: EC90 = concentration for ΔCT=3.2 over baseline
Experimental: as §1, §2, §3

HCV replicon 2b = experiment: Cell-based HCV replicon assay (TaqMan), genotype 2b replicon; settings: EC90 = concentration for ΔCT=3.2 over baseline
Experimental: as §1, §2, §3

[1] = Hepatitis C virus, 72 h, read-out: 1a Y93H EC90, HCV 1a Y93H mutant replicon cells, replicon RNA by TaqMan on day 3
[2] = Hepatitis C virus, 72 h, read-out: 2b EC90, HCV 2b replicon cells, replicon RNA by TaqMan on day 3
[3] = read-out: 2b EC90, HCV 2b replicon cells, replicon RNA by TaqMan on day 3

Structure (SMILES)	EC90 (HCV replicon 1a; Hepatitis C virus, 72 h) [nM]	EC90 (HCV replicon 1b; Hepatitis C virus, 72 h) [nM]	EC90 (HCV replicon 1a Y93H; [1]) [nM]	EC90 (HCV replicon 2b; [2]) [nM]	EC90 (HCV replicon 1a) [nM]	EC90 (HCV replicon 1b) [nM]	EC90 (HCV replicon 2b; [3]) [nM]	EC90 (HCV replicon 1a Y93H; read-out: 1a Y93H EC90, HCV 1a Y93H mutant replicon cells, replicon RNA by TaqMan on day 3) [nM]
CCS(=O)(=O)N1CCC(NC(=O)c2ccc(-c3ccc(-c4cnc([C@@H]5C[Si](C)(C)CN5C(=O)[C@@H](NC(=O)OC)C(C)C)[nH]4)cc3)cc2)CC1 [Compound 75]	159	0.028	> 1000	> 1000	–	–	–	–
COC(=O)N[C@H](C(=O)N1C[C@H](F)C[C@H]1c1ncc(-c2ccc(C#Cc3ccc(-c4cnc([C@@H]5C[Si](C)(C)CN5C(=O)[C@@H](NC(=O)OC)C(C)OC)[nH]4)cc3)cc2)[nH]1)C(C)C (stereo partly shown) [Compound 59]	> 1	0.02	> 100	> 100	–	–	–	–
CC[C@H](C)[C@H](NC(=O)OC)C(=O)N1CCC[C@H]1c1ncc(-c2ccc(-c3ccc(-c4cnc([C@@H]5C[Si](C)(C)CN5C(=O)[C@@H](NC(=O)OC)[C@@H](C)CC)[nH]4)cc3)cc2)[nH]1 [Compound 14]	–	–	1000	–	3.22	23.8	1000	–
COC(=O)N[C@H](Cc1c[nH]c2ccccc12)C(=O)N1CCC[C@H]1c1ncc(-c2ccc(-c3ccc(-c4cnc([C@@H]5C[Si](C)(C)CN5C(=O)[C@@H](Cc5c[nH]c6ccccc56)NC(=O)OC)[nH]4)cc3)cc2)[nH]1 [Compound 16]	1000	1000	500	1000	–	–	–	–
COC(=O)N[C@H](C(=O)N1CCC[C@H]1c1nc(Cl)c(-c2ccc(-c3ccc(-c4[nH]c([C@@H]5C[Si](C)(C)CN5C(=O)[C@@H](NC(=O)OC)C(C)C)nc4Cl)cc3)cc2)[nH]1)C(C)C [Compound 41]	0.26	217	189	100	–	–	–	–
COC(=O)N[C@@H](Cn1cccn1)C(=O)N1CCC[C@H]1c1ncc(-c2ccc(-c3ccc(-c4cnc([C@@H]5C[Si](C)(C)CN5C(=O)[C@H](Cn5cccn5)NC(=O)OC)[nH]4)cc3)cc2)[nH]1 [Compound 29]	5.32	139	1000	861	–	–	–	–
COC(=O)N[C@@H](C)C(=O)N1C[Si](C)(C)C[C@H]1c1nc(Cl)c(-c2ccc(-c3ccc(-c4[nH]c([C@@H]5C[C@H]6C[C@H]6N5C(=O)[C@H](C)NC(=O)OC)nc4Cl)cc3)cc2)[nH]1 [Compound 52]	0.021	0.007	9.5	57	–	–	–	–
COC(=O)N[C@@H](Cc1cn(C)cn1)C(=O)N1CCC[C@H]1c1ncc(-c2ccc(-c3ccc(-c4cnc([C@@H]5C[Si](C)(C)CN5C(=O)[C@H](Cc5cn(C)cn5)NC(=O)OC)[nH]4)cc3)cc2)[nH]1 [Compound 28]	11.9	282	1000	1000	–	–	–	–
COC(=O)N[C@H](C(=O)N1C[Si](C)(C)C[C@H]1c1nc(Cl)c(-c2ccc(-c3ccc(-c4[nH]c([C@@H]5C[C@H]6C[C@H]6N5C(=O)[C@@H](NC(=O)OC)C(C)C)nc4F)cc3)cc2)[nH]1)C(C)C [Compound 45]	0.13	0.017	144	66	–	–	–	–
COC(=O)N[C@H](C(=O)N1C[C@H](F)C[C@H]1c1ncc(-c2ccc(C#Cc3ccc(-c4cnc([C@@H]5C[Si](C)(C)CN5C(=O)[C@@H](NC(=O)OC)C(C)C)[nH]4)cc3)cc2)[nH]1)C(C)C [Compound 58]	> 1	0.03	> 100	> 100	–	–	–	–
CC[C@H](NC(=O)OC)C(=O)N1CCC[C@H]1c1ncc(-c2ccc(-c3ccc(-c4cnc([C@@H]5C[Si](C)(C)CN5C(=O)[C@H](CC)NC(=O)OC)[nH]4)cc3)cc2)[nH]1 [Compound 12]	0.187	18.1	694	535	–	–	–	–
COC(=O)N[C@H](C(=O)N1CCC[C@H]1c1ncc(-c2ccc(-c3ccc(-c4cnc([C@@H]5C[Si](C)(C)CN5C(=O)[C@@H](NC(=O)OC)C5CCCC5)[nH]4)cc3)cc2)[nH]1)C1CCCC1 [Compound 24]	2.91	17.3	1000	382	–	–	–	–
CC[C@H](C)[C@H](NC(=O)OC)C(=O)N1CCC[C@H]1c1ncc(-c2ccc(-c3ccc(-c4cnc([C@@H]5C[Si](C)(C)CN5C(=O)[C@@H](NC(=O)OC)[C@@H](C)CC)[nH]4)cc3)cc2)[nH]1 [Compound 30]	–	–	–	–	1.33	7.63	248	610
COC(=O)N[C@@H](Cc1c[nH]c2ccccc12)C(=O)N1CCC[C@H]1c1ncc(-c2ccc(-c3ccc(-c4cnc([C@@H]5C[Si](C)(C)CN5C(=O)[C@H](Cc5c[nH]c6ccccc56)NC(=O)OC)[nH]4)cc3)cc2)[nH]1 [Compound 17]	9.36	1000	1000	1000	–	–	–	–
COC(=O)N[C@@H](Cn1ncnn1)C(=O)N1CCC[C@H]1c1ncc(-c2ccc(-c3ccc(-c4cnc([C@@H]5C[Si](C)(C)CN5C(=O)[C@H](Cn5ncnn5)NC(=O)OC)[nH]4)cc3)cc2)[nH]1 [Compound 27]	6.11	2.17	1000	138	–	–	–	–
COC(=O)N[C@H](C(=O)N1CCC[C@@H]1c1ncc(-c2ccc(-c3ccc(-c4cnc([C@H]5C[Si](C)(C)CN5C(=O)[C@@H](NC(=O)OC)c5ccccc5)[nH]4)cc3)cc2)[nH]1)c1ccccc1 [Compound 19]	25.5	11	1000	999	–	–	–	–
COC(=O)NC1(C(=O)N2CCC[C@@H]2c2ncc(-c3ccc(-c4ccc(-c5cnc([C@H]6C[Si](C)(C)CN6C(=O)C6(NC(=O)OC)CC6)[nH]5)cc4)cc3)[nH]2)CC1 [Compound 20]	1000	1000	1000	1000	–	–	–	–
CCC[C@H](NC(=O)OC)C(=O)N1CCC[C@H]1c1ncc(-c2ccc(-c3ccc(-c4cnc([C@@H]5C[Si](C)(C)CN5C(=O)[C@H](CCC)NC(=O)OC)[nH]4)cc3)cc2)[nH]1 [Compound 15]	2.43	45.8	542	515	–	–	–	–
COC(=O)N[C@H](C(=O)N1CCC[C@H]1c1ncc(-c2ccc(-c3ccc(-c4cnc([C@@H]5C[Si](C)(C)CN5C(=O)[C@@H](NC(=O)OC)C5CCCCC5)[nH]4)cc3)cc2)[nH]1)C1CCCCC1 [Compound 34]	2.5	0.04	> 1000	648	–	–	–	–
COC(=O)N[C@H](C(=O)N1CCC[C@H]1C(=O)Nc1n[nH]c2ccc(-c3ccc(-c4cnc([C@@H]5C[Si](C)(C)CN5C(=O)[C@@H](NC(=O)OC)C(C)C)[nH]4)cc3)cc12)C(C)C [Compound 79]	> 1	> 1	> 100	> 100	–	–	–	–
COC(=O)N[C@H](C(=O)N1C[Si](C)(C)C[C@H]1c1nc(Cl)c(-c2ccc(-c3ccc(-c4[nH]c([C@@H]5C[C@H]6C[C@H]6N5C(=O)[C@@H](NC(=O)OC)C5CC5)nc4Cl)cc3)cc2)[nH]1)C1CC1 [Compound 53]	0.01	0.01	26.8	11.3	–	–	–	–
COC(=O)N[C@@H](C)C(=O)N1CCC[C@@H]1c1ncc(-c2ccc(-c3ccc(-c4cnc([C@H]5C[Si](C)(C)CN5C(=O)[C@H](C)NC(=O)OC)[nH]4)cc3)cc2)[nH]1 [Compound 18]	988	1000	1000	1000	–	–	–	–
